The target in experiment [1] is T1, GFP-AR (wild type androgen receptor) (Homo sapiens, UniProt P10275).
T1 sequence (P10275 1-920): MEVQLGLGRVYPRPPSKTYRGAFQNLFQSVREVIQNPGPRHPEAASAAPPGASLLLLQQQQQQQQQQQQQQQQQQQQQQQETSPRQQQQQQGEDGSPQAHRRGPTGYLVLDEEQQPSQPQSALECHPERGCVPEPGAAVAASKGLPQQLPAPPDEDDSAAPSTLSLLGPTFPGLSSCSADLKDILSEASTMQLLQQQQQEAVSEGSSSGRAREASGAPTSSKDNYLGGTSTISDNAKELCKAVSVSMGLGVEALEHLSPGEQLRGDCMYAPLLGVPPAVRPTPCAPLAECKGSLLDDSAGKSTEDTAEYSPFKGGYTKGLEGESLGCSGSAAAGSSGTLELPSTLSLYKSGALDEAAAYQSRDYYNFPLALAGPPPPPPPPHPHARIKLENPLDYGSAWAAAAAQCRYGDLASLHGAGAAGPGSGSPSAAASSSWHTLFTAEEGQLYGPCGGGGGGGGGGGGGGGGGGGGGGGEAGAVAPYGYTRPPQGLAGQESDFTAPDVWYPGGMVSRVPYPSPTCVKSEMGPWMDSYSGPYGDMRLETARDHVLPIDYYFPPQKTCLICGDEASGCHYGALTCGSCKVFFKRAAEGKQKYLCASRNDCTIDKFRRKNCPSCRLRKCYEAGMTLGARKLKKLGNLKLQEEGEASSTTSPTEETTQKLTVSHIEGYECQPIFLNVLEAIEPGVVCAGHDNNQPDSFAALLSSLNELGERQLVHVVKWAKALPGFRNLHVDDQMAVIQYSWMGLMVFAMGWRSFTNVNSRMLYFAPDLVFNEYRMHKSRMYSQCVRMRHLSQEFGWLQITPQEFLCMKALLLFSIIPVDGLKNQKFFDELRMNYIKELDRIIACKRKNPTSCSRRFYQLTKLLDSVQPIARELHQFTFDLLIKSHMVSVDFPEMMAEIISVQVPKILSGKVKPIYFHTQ
Briefly: HT imaging: AR nuclear hyperspeckling (NVAR) in stable HeLa GFP-AR cells.
Source text: (§1) In general, 49 images were captured per well for image analysis.

In experiment [2] the target is T1, GFP-AR (wild type androgen receptor). Briefly: HT imaging: pARR2PB-dsRED2skl transcriptional reporter gene activity (CORR2) in stable HeLa GFP-AR cells. The experiment is classed as cell-based. On the set-up: expressed in transfected cells. From the text: Cells were imaged in PBS.
For orientation: Reporter assays use an easily measured gene product as a stand-in for the process of interest.

The target is the same in experiment [3]. The experiment in a line: HT imaging: AR nuclear translocation (FLIN) in stable HeLa GFP-AR cells.
Source text: as §1
For experiment [4], the target named is T2, GFP-AR F764L (AIS mutation) (Homo sapiens, UniProt P10275, F765L).
T2 construct: expressed in transfected cells
T2 sequence (P10275 1-920 F765L): T1 sequence (P10275 1-920) with F765L
Briefly: HT imaging multiplex assay, all three parameters together, HeLa GFP-AR F764L. Type of experiment: cell-based. As to conditions: read-out: maximal responses (three parameters), % of that observed with WT AR.

In experiment [5] the target is T3, GFP-AR T877A (LNCaP mutation) (Homo sapiens, UniProt P10275, T878A).
T3 construct: expressed in transfected cells
T3 sequence (P10275 1-920 T878A): T1 sequence (P10275 1-920) with T878A
Briefly: HT imaging multiplex assay, all measurements together, HeLa GFP-AR T877A. Type of experiment: cell-based.

The next experiment deals with HeLa GFP-AR cells. Briefly: Cell cycle analysis by DNA content (DAPI)/EdU incorporation in unsynchronized cells. Type of experiment: cell-based, human. The settings on record: for EC50: Homo sapiens, HeLa, 18 h. The method, then:
To perform these studies, we simplified the HCS cell cycle analysis techniques described by Gesparri et al. to a DNA content (DAPI)/EdU incorporation biparametric analysis to identify G1, S phase, and G2 cells in unsynchronized growing cells (Fig. 6A). Cells were prepared as normal except with a brief 30 minute exposure to 10 µM EdU, which will incorporate into newly synthesized DNA similar to BrdU, prior to fixation. During image analysis, total nuclear DAPI signal (DNA) and mean nuclear EdU signal from each cell was quantified and used to determine cell cycle.
For experiments in which cell cycle effects were determined, cells were labeled using an Invitrogen Click-iT cell cycle analysis kit using supplied protocols. Prior to fixation, cells were exposed to 10 µM EdU for 30 minutes. Cells with EdU incorporation were labeled by an EdU specific antibody conjugated to an A647 florescent marker. Because the Click-iT labeling decreases GFP signal intensity, AR was labeled using an Anti-AR antibody (Dr. Nancy Weigel) and A488 secondary antibody (Molecular Probes).

The target in experiment [6] is T1, GFP-AR (wild type androgen receptor). Briefly: HT imaging multiplex assay, all three parameters together (FLIN, NVAR, CORR2), HeLa GFP-AR.
Source text: as §1

Substitutions are numbered along the chain they refer to. Read-outs that look alike come from different tables or passages of the source.

Usually IC50 stands for the concentration at which inhibition is half-maximal. Read a low IC50 as higher potency. For the compound `CC(C)=CC(=O)O[C@H]1Cc2cc3ccc(=O)oc3cc2OC1(C)C` [Decursin], the IC50 turned out to be 12.3 ± 0.43 µM in experiment [1], 10.6 ± 0.865 µM in experiment [2] and 13.2 ± 0.152 µM in experiment [3]. Further, the “reduction/loss of agonist-induced hyperspeckling (NVAR)” value in experiment [1] (with 10 nM R1881) was found to be 94%. The “decrease in transcriptional reporter gene activity (dsRED2skl reporter signal)” value in experiment [2] (with 10 nM R1881) is on record as 45%. The compound further yielded an EC50 in experiment [3] of 0.853 ± 0.0884 µM. Also, the “decrease in R1881-induced nuclear translocation” value in experiment [3] (with 10 nM R1881) amounted to 95%.

Regarding `C[C@@H]1CC2=CC(=O)CC[C@@H]2[C@H]2CC[C@@]3(C)[C@@H](CC[C@]3(C)O)[C@@H]21` [Mibolerone, mibolerone], in experiment [4], the Emax is 85 to 105%. The “difference of results from those observed with WT-AR” value in experiment [5] (compound alone) is not above 1%.

With `CC(C)(O)C(=O)Nc1ccc([N+](=O)[O-])c(C(F)(F)F)c1` [OHF, o-hydroxyflutamide], the “induction of nuclear hyperspeckling (in words)” value in experiment [1] (compound alone) was “no significant hyperspeckling”. Moreover, in experiment [5] (compound alone), the “concentration at which agonist effect / activation of the T877A mutant is observed” value lay within 75 to 85 nM. Also, the “induction of transcriptional reporter gene activity (in words)” value in experiment [2] (compound alone) is “no significant hyperspeckling or induction of transcription”. Further, the “effect on the cell cycle (in words)” value in the experiment on HeLa GFP-AR cells (18 hr treatment) is given as “did not have any appreciable effect on the cell cycle”.

In the case of `CC(C)(C)CC(C)(C)c1ccc(O)cc1` [Octophenol], the “response on any of the three parameters measured (in words)” value in experiment [6] (compound alone) is “did not yield a significant response”. Further, the “response on any of the three parameters / AR antagonistic activity (in words)” value in experiment [6] (with 10 nM R1881 (competition)) was “did not yield a significant response”.

Take `C[C@]1(O)CC[C@H]2[C@@H]3CCC4=CC(=O)CCC4=C3C=C[C@@]21C` [R1881, Methyltrienolone]: the Emax in experiment [4] lay in the range of 40 to 60%. Besides, the “difference of results from those observed with WT-AR” value in experiment [5] is listed as not above 1%. Further, the “concentration at which saturation of response is observed” value in experiment [6] (FLIN, NVAR, CORR2, titration 10−6 M to 10−11 M) is given as “≈ 100 nM”. Moreover, in experiment [3], the “cells with a majority of the GFP signal in the nucleus” value is on record as 95–97%, the “more AR in the nucleus in G2 cells compared to G1 cells” value is 8–12% and the “time AR distribution remained nuclear after ligand pulse” value was “up to 15 hr”. For the same compound, the “S % (I + II)” value with HeLa GFP-AR cells (100 nM, untreated control 42.6) is 0.7%. Also, in the experiment with HeLa GFP-AR cells (read-out: EC50 of G1/S block), the EC50 was 0.1 ± 0.03 nM. Further, the EC50 in the experiment with HeLa GFP-AR cells (read-out: EC50 of reduction in S-phase cells) came out at 0.07 ± 0.02 nM.

Source of the values: publication PMC2572143, “Androgen Receptor Functional Analyses by High Throughput Imaging: Determination of Ligand, Cell Cycle, and Mutation-Specific Effects” (PLoS ONE, 2008).
